Key:
[1] = in vitro; conditions: rat, plasma, pH 7.4
Description: Fraction unbound (%) in rat plasma at pH 7.4 after 18 hrs by equilibrium dialysis

[2] = in vitro; conditions: human, plasma, pH 7.4
Description: Fraction unbound (%) in human plasma at pH 7.4 after 18 hrs by equilibrium dialysis

[3] = in vitro; conditions: dog, plasma, pH 7.4
Description: Fraction unbound (%) in dog plasma at pH 7.4 after 18 hrs by equilibrium dialysis

[4] = Fraction unbound (%) in mouse plasma at pH 7.4 after 18 hrs by equilibrium dialysis; format: ADME, cell-free
[5] = system: Plasma; experiment: Fraction unbound (%) in human plasma in phosphate buffer after 30 mins by liquid scintillation counting; format: ADME, cell-free; conditions: 0.5 h
[6] = system: Plasma; experiment: Fraction unbound (%) in rat plasma in phosphate buffer after 30 mins by liquid scintillation counting; format: ADME, cell-free; conditions: 0.5 h

**Q.** Which fraction unbound at 18 h [1] does the source give for `COc1cc([C@@H]2c3cc4c(cc3[C@@H](O[C@@H]3O[C@@H]5CO[C@@H](C)O[C@H]5[C@H](O)[C@H]3O)[C@H]3COC(=O)[C@H]23)OCO4)cc(OC)c1O` [ETOPOSIDE] here?
**A.** 0.52

**Q.** And the fraction unbound at 18 h [2]?
**A.** 0.049

**Q.** And the fraction unbound at 18 h [3]?
**A.** 0.63

**Q.** Which fraction unbound at 18 h [1] does the source give for `CO[C@@]1(NC(=O)C2SC(=C(C(N)=O)C(=O)O)S2)C(=O)N2C(C(=O)O)=C(CSc3nnnn3C)CS[C@@H]21` (stereo partly specified) [CEFOTETAN] here?
**A.** 0.7

**Q.** What about the fraction unbound at 18 h [2] of the same compound?
**A.** 0.09

**Q.** And the fraction unbound at 18 h [3]?
**A.** 0.61

**Q.** For `CCCC(CCC)C(=O)O` [VALPROIC ACID], which fraction unbound at 18 h [1] is on record?
**A.** 0.88

**Q.** What about the fraction unbound at 18 h [2] of the same compound?
**A.** 0.052

**Q.** With `CCCc1nn(C)c2c(=O)[nH]c(-c3cc(S(=O)(=O)N4CCN(C)CC4)ccc3OCC)nc12` as the compound, how does the fraction unbound at 18 h [2] read?
**A.** 0.064

**Q.** What about the fraction unbound at 18 h [3] of the same compound?
**A.** 0.26

**Q.** With `CC[C@@H](c1ccccc1)c1c(O)c2ccccc2oc1=O` as the compound, how does the fraction unbound at 18 h [4] read?
**A.** 0.11

**Q.** What about the fraction unbound at 18 h [2] of the same compound?
**A.** 0.007

**Q.** Which results are given for `c1ccc(C(O[C@@H]2CCCN(CCc3ccc4c(c3)OCO4)C2)c2ccccc2)cc1` [ZAMIFENACIN]?
**A.** fraction unbound at 18 h [1]: 0.002; fraction unbound at 18 h [2]: 0.0001

**Q.** For `CCOc1ccccc1OCCN[C@H](C)Cc1ccc(OC)c(S(N)(=O)=O)c1` [TAMSULOSIN], which fraction unbound at 18 h [1] is on record?
**A.** 0.2

**Q.** What about the Fu [5] of the same compound?
**A.** 1%

**Q.** And the Fu [6]?
**A.** 20%

**Q.** Which fraction unbound at 18 h [2] does the source give for `Cc1cc(O)c(C(=O)N[C@@H](C(=O)N[C@@H]2C(=O)N3C(C(=O)O)=C(CSc4nnnn4C)CS[C@H]23)c2ccc(O)cc2)cn1` [CEFPIRAMIDE] here?
**A.** 0.09

**Q.** What about the fraction unbound at 18 h [3] of the same compound?
**A.** 0.6

**Q.** For `O=c1[nH]c2ccccc2n1C1CCN(CCCC(c2ccc(F)cc2)c2ccc(F)cc2)CC1` [PIMOZIDE], which fraction unbound at 18 h [2] is on record?
**A.** 0.0016

**Q.** What about the fraction unbound at 18 h [3] of the same compound?
**A.** 0.0004

Reference: ChEMBL document CHEMBL3588839, “Species differences in drug plasma protein binding” (Medchemcomm, 2014)
